For the test, the system named is CD8^+ T cells. In words: IFN-γ ELISPOT, HLA A*0201 transgenic mice. Format: cell-based. To be noted: HLA-A*0201-restricted Jurkat cells as APC, peptide 1 μg/ml, day 7 after 10^11 GE S221. Here is the method: The proteome of the DENV2 strain, S221, was inspected for the presence of peptides predicted to bind HLA A*0201 with high affinity. A total of 68 potential H-2^b binding peptides were identified. HLA A*0201 transgenic mice were infected i.v. with 10^11 GE of the DENV2 strain, S221. Seven days post-infection, splenocytes were harvested and CD8^+ T cells isolated. CD8^+ T cells (1.75×10^5) were stimulated with HLA-A*0201-restricted Jurkat cells and 1 μg/ml of individual S221-derived A*02-predicted binding peptides, and IFN-γ ELISPOT was performed. The data are expressed as the mean number of net spot-forming cells (SFC) per 10^6 CD8^+ T cells. The top 20 predicted epitopes, which includes the two positive peptides identified (indicated with an asterisk), are shown. The criteria for positivity were a stimulation index of ≧2.0, p<0.05 when compared with an irrelevant control peptide, and net SFC/10^6 cells of ≧20.
The proteome of the DENV2 strain, S221, was inspected for the presence of peptides predicted to bind HLA A*0201 with high affinity. A total of 68 potential H-2^b binding peptides were identified. HLA A*0201 transgenic mice were infected intravenously (i.v.) with 10^11 GE of the DENV2 strain, S221. […] Referring to FIG. 11, the data are expressed as the mean number of net spot-forming cells (SFC) per 10^6 CD8^+ T cells. […]

With RLITVNPIV, the “IFN-γ ELISPOT positivity” value was “positive”.
Turning to KLAEAIFKL (listed as Dengue virus), the “IFN-γ ELISPOT positivity” value is recorded as “positive”.
